In assay [1] the target is T1, Avi-KRAS G12D (1-169) GppNHp/RAF1 RBD-3xFLAG (52-151) (Homo sapiens, UniProt P01116, G12D).
T1 construct: Avi-KRAS G12D (1-169)
Briefly: Raf1-KRAS G12D-GppNHP disruption HTRF assay (Biological Example 1). In kind it is binding. The settings on record: KRAS G12D, GppNHp-loaded; class symbols. The essentials: (§1)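 Read-out is HTRF signal of the KRAS–RAF1 RBD complex, reported as percentage of activity relative to DMSO (100%). Protein mix and detection reagents each incubated 1 h at room temperature with 700 rpm shaking. Buffer: 50 mM Tris pH 7.5, 100 mM NaCl, 5 mM MgCl2, 0.1% BSA, 0.01% Tween, 10% DMSO.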
For orientation: Time-resolved FRET reads energy transfer from a long-lived donor to a nearby acceptor.

Assay [2] concerns the target T2, Avi-KRAS G12R (1-169) GppNHp/RAF1 RBD-3xFLAG (52-151) (Homo sapiens, UniProt P01116, G12R).
T2 construct: Avi-KRAS G12R (1-169)
In words: Raf1-KRAS G12R-GppNHP disruption HTRF assay (Biological Example 1). In kind it is binding. The conditions noted are these: KRAS G12R, GppNHp-loaded; class symbols. The essentials:
as §1

Assay [3] deals with T3, Avi-KRAS WT (1-169) GppNHp/RAF1 RBD-3xFLAG (52-151) (Homo sapiens, UniProt P01116).
T3 construct: Avi-KRAS WT (1-169)
Briefly: Raf1-KRAS WT-GppNHP disruption HTRF assay (Biological Example 1). The settings on record: KRAS WT, GppNHp-loaded; class symbols. In kind it is binding. The essentials: as §1

Assay [4] relates to GP2d cells (KRAS G12D). Briefly: Cell-based pERK HTRF assay in GP2d cell (Biological Example 2). The settings on record: GP2d (KRAS G12D) cells. The essentials: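 Phospho-ERK is measured by HTRF following a 60 min compound exposure at 0.25% DMSO, with a 9-point half-log curve topping at 1 μM or 100 nM.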
Assay [5] has as its target T4, Avi-KRAS G12V (2-169) GTP/RAF1 RBD-3xFLAG (51-131) (Homo sapiens, UniProt P01116, G12V).
T4 construct: Avi-KRAS G12V (2-169)
Briefly: Raf1-KRAS G12V-GTP disruption HTRF assay (Biological Example 3). In kind it is binding. The conditions noted are these: KRAS G12V, GTP-loaded. The essentials:
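HTRF PPI read-out (ex 320 nm, em 615 nm) after 1 h RT incubation with shaking; data as % activity vs DMSO (100%), IC50 from curve fit. Complex 50 nM, RBD reagent 75 nM; compound 30-0.005 μM, 3-fold.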

In patent US20260042764A1, “COMPOSITIONS AND METHODS FOR INHIBITION OF KRAS” (TheRas, Inc., priority 2022, published 2026) one finds IC50 data, which are given here for 8 compounds.

Usually pIC50 stands for the negative decadic logarithm of the IC50, by convention in mol/L.

The structures appear in SMILES notation. pIC50: −log10 of the molar value. Bounds are passed on as bounds.

T1 sequence (P01116 1-169 isoform P01116-2 G12D): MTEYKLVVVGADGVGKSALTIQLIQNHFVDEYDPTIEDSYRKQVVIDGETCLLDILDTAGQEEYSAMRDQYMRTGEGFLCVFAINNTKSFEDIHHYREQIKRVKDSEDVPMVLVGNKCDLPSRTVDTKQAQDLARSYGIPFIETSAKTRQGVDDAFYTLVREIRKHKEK
T3 sequence (P01116 1-169 isoform P01116-2): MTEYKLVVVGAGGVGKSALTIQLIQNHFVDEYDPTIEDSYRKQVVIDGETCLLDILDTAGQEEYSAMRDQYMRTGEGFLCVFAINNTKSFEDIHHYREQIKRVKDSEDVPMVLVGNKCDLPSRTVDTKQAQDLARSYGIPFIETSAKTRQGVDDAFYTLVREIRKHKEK
T2 sequence (P01116 1-169 isoform P01116-2 G12R): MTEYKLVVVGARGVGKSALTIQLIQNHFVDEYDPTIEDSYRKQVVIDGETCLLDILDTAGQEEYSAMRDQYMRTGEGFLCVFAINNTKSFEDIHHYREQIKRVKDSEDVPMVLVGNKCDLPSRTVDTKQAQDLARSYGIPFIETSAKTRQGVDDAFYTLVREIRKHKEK
T4 sequence (P01116 2-169 isoform P01116-2 G12V): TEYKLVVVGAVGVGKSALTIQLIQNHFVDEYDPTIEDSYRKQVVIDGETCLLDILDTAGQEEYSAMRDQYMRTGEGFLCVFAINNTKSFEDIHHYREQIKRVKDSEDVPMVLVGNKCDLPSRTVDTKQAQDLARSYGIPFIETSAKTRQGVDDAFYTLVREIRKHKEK

Take `CCN(c1nc(OC[C@@]23CCCN2C[C@H](F)C3)nc2c(F)c(-c3ccc(F)c4sc(N)c(C#N)c34)c(C(F)(F)F)cc12)[C@H]1CCN(C(=O)O[C@@H]2CCOC2)C1` (atropisomer, axis not shown) [Compound 683]: the pIC50 was > 7.00 in assay [1]; > 7.00 in assay [2]; > 7.00 in assay [3]; > 7.00 in assay [4] (GP2d); > 7.00 in assay [4] (GP2d, pERK HTRF, class symbols); ≥ 7.00 in assay [5].

`CCN(c1nc(OC[C@@]23CCCN2C[C@H](F)C3)nc2c(F)c(-c3ccc(F)c4sc(N)c(C#N)c34)c(C(F)(F)F)cc12)[C@H]1CCN(C(=O)[C@@H]2C[C@@H]2C)C1` (atropisomer, axis not shown) [Compound 689]: the negative logarithm of the IC50 (pIC50) is > 7.00 in assay [1]; > 7.00 in assay [2]; 6.00 to 7.00 in assay [3]; > 7.00 in assay [4] (GP2d); > 7.00 in assay [4] (GP2d, pERK HTRF, class symbols); 6.00 to 7.00 in assay [5].

`CCN(c1nc(OC[C@@]23CCCN2C[C@H](F)C3)nc2c(F)c(-c3ccc(F)c4sc(N)c(C#N)c34)c(C(F)(F)F)cc12)[C@H]1C[C@H](COC)N(C(=O)C2CC2)C1` (atropisomer, axis not shown) [Compound 696]: the pIC50 is > 7.00 in assay [1]; > 7.00 in assay [2]; > 7.00 in assay [3]; > 7.00 in assay [4] (GP2d); > 7.00 in assay [4] (GP2d, pERK HTRF, class symbols); 6.00 to 7.00 in assay [5].

`CCN(c1nc(OC[C@@]23CCCN2C[C@H](F)C3)nc2c(F)c(-c3ccc(F)c4sc(N)c(C#N)c34)c(C(F)(F)F)cc12)[C@@H]1CC(=O)N(C2CC2)C1` (atropisomer, axis not shown) [Compound 703]: the pIC50 was 6.00 to 7.00 in assay [1]; 5.00 to 6.00 in assay [2]; 6.00 to 7.00 in assay [3]; > 7.00 in assay [4]; > 7.00 in assay [4] (GP2d, pERK HTRF, class symbols); 5.00 to 6.00 in assay [5].

For `CCN(c1nc(OC[C@@]23CCCN2C[C@H](F)C3)nc2c(F)c(-c3ccc(F)c4sc(N)c(C#N)c34)c(C(F)(F)F)cc12)[C@H]1C[C@H](C)N(C(=O)OC)C1` (atropisomer, axis not shown) [Compound 704], the pIC50 in assay [1] is > 7.00; in assay [2], > 7.00; in assay [3], > 7.00; in assay [4] (GP2d) it was > 7.00; in assay [4] (GP2d, pERK HTRF, class symbols), > 7.00; in assay [5], 6.00 to 7.00.

On to `CCN(c1nc(OC[C@@]23CCCN2C[C@H](F)C3)nc2c(F)c(-c3ccc(F)c4sc(N)c(C#N)c34)c(C(F)(F)F)cc12)[C@H]1CCN(C(=O)c2ccns2)C1` (atropisomer, axis not shown) [Compound 726], for which the negative logarithm of the IC50 (pIC50) was > 7.00 in assay [1]; > 7.00 in assay [2]; > 7.00 in assay [3]; > 7.00 in assay [4] (GP2d); > 7.00 in assay [4] (GP2d, pERK HTRF, class symbols); 6.00 to 7.00 in assay [5].

As for `CCN(c1nc(OC[C@@]23CCCN2C[C@H](F)C3)nc2c(F)c(-c3ccc(F)c4sc(N)c(C#N)c34)c(C(F)(F)F)cc12)[C@H]1CCN(C(=O)N(C)C)[C@@H]1C` (atropisomer, axis not shown) [Compound 749], the pIC50 is > 7.00 in assay [1]; > 7.00 in assay [2]; > 7.00 in assay [3]; > 7.00 in assay [4] (GP2d); > 7.00 in assay [4] (GP2d, pERK HTRF, class symbols); ≥ 7.00 in assay [5].

On to `CCN(c1nc(OC[C@@]23CCCN2C[C@H](F)C3)nc2c(F)c(-c3ccc(F)c4sc(N)c(C#N)c34)c(C(F)(F)F)cc12)[C@H]1C[C@@H](C)N(C(=O)[C@H]2CCO2)C1` (atropisomer, axis not shown) [Compound 752], for which the pIC50 in assay [1] was > 7.00; in assay [2], > 7.00; in assay [3], 6.00 to 7.00; in assay [4] (GP2d) it was > 7.00; in assay [4] (GP2d, pERK HTRF, class symbols), > 7.00; in assay [5], 6.00 to 7.00.
